Test results as given in ChEMBL document CHEMBL5291721, “A preclinical secondary pharmacology resource illuminates target-adverse drug reaction associations of marketed drugs” (Nat Commun, 2023).

Legend:
Estrogen receptor = target: T1, Estrogen receptor (Homo sapiens, UniProt P03372)
T1 sequence (P03372 whole entry): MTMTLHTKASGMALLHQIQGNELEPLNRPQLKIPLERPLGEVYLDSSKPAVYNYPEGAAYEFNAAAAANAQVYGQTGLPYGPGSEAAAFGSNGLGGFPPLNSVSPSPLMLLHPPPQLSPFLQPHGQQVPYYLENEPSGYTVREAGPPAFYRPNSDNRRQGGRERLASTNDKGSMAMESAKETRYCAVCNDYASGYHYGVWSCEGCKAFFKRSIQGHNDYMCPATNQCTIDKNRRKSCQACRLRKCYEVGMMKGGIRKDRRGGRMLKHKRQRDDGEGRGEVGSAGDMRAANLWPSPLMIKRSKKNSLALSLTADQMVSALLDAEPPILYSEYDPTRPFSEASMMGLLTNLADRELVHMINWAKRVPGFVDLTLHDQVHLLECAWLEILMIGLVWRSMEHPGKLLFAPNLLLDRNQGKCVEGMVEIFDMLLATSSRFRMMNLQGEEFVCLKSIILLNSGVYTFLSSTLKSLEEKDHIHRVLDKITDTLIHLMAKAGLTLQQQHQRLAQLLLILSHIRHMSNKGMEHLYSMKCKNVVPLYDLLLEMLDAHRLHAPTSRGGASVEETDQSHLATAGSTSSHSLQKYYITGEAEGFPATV

[1] = target: T2, 5-hydroxytryptamine receptor 2C (Homo sapiens, UniProt P28335)
T2 sequence (P28335 whole entry): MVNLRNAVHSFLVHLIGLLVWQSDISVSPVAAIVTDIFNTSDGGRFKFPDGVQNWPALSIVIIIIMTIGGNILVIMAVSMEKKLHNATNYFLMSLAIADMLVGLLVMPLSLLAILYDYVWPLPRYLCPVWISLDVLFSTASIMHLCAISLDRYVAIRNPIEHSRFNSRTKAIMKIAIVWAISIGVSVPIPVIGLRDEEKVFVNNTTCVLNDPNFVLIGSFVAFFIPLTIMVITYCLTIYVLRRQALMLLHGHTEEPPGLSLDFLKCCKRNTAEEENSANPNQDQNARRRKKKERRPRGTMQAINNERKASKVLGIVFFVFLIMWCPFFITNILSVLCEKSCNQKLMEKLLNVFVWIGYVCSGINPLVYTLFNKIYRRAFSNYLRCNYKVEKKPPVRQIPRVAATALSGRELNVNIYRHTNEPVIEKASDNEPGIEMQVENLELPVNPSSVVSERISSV

[2] = target: T3, 5-hydroxytryptamine receptor 3A (Homo sapiens, UniProt P46098); assay type: functional
T3 sequence (P46098 whole entry): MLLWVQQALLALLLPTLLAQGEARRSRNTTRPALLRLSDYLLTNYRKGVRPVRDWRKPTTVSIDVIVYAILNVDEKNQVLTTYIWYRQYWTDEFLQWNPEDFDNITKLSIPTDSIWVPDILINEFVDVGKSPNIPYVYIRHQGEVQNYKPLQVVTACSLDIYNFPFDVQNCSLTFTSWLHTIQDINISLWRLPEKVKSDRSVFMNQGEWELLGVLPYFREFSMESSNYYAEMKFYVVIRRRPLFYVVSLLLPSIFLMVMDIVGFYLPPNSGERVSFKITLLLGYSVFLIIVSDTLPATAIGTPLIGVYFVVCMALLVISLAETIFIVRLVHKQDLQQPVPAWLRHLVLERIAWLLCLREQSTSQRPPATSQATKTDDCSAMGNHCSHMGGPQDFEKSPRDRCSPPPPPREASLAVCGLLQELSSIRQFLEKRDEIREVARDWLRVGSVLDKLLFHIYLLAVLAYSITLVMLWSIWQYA

[3] = target: Delta-type opioid receptor (Homo sapiens, UniProt P41143)
[4] = target: T4, 5-hydroxytryptamine receptor 1A (Homo sapiens, UniProt P08908); assay type: functional, cell-based
T4 sequence (P08908 whole entry): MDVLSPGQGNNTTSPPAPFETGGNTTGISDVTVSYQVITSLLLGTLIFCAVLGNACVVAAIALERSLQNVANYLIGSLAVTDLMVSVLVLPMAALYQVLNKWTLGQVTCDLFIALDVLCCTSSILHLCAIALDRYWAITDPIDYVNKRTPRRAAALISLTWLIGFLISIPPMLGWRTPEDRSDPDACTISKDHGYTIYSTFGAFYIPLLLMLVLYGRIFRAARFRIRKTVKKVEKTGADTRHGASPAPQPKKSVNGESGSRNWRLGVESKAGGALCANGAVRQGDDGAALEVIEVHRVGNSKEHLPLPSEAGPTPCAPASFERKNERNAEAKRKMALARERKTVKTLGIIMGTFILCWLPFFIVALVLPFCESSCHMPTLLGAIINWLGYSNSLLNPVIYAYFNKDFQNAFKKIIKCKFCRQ

[5] = target: T5, Type-1 angiotensin II receptor (Homo sapiens, UniProt P30556)
T5 sequence (P30556 whole entry): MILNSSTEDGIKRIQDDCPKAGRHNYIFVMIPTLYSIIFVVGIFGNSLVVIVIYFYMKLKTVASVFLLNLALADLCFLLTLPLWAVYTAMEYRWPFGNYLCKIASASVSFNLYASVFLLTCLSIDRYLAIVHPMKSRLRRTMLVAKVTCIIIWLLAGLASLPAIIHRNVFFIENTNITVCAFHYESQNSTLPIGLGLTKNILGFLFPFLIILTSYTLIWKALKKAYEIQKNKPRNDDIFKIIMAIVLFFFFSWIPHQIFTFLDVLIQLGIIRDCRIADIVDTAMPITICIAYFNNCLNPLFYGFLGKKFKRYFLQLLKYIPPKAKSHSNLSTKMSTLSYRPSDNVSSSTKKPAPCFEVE

[6] = target: Voltage-dependent L-type calcium channel subunit alpha-1C (Rattus norvegicus, UniProt P22002); assay type: functional
[7] = target: T6, Alpha-2A adrenergic receptor (Homo sapiens, UniProt P08913); assay type: functional, cell-based
T6 sequence (P08913 whole entry): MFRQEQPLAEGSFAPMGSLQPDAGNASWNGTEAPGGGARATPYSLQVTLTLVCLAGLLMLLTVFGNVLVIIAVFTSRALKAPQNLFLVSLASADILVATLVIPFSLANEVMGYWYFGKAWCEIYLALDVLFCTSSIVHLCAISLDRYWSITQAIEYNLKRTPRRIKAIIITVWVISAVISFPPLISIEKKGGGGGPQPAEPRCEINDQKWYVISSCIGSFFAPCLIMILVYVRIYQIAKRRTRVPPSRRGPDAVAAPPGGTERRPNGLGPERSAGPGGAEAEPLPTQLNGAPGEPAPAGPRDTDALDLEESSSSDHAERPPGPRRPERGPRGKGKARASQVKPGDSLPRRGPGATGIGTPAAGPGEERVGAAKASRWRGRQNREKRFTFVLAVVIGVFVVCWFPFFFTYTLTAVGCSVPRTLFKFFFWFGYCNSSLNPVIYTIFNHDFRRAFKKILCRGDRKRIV
Further: assay procedure not described here.

Chain of Voltage-dependent L-type calcium channel subunit alpha-1C (P22002 whole entry): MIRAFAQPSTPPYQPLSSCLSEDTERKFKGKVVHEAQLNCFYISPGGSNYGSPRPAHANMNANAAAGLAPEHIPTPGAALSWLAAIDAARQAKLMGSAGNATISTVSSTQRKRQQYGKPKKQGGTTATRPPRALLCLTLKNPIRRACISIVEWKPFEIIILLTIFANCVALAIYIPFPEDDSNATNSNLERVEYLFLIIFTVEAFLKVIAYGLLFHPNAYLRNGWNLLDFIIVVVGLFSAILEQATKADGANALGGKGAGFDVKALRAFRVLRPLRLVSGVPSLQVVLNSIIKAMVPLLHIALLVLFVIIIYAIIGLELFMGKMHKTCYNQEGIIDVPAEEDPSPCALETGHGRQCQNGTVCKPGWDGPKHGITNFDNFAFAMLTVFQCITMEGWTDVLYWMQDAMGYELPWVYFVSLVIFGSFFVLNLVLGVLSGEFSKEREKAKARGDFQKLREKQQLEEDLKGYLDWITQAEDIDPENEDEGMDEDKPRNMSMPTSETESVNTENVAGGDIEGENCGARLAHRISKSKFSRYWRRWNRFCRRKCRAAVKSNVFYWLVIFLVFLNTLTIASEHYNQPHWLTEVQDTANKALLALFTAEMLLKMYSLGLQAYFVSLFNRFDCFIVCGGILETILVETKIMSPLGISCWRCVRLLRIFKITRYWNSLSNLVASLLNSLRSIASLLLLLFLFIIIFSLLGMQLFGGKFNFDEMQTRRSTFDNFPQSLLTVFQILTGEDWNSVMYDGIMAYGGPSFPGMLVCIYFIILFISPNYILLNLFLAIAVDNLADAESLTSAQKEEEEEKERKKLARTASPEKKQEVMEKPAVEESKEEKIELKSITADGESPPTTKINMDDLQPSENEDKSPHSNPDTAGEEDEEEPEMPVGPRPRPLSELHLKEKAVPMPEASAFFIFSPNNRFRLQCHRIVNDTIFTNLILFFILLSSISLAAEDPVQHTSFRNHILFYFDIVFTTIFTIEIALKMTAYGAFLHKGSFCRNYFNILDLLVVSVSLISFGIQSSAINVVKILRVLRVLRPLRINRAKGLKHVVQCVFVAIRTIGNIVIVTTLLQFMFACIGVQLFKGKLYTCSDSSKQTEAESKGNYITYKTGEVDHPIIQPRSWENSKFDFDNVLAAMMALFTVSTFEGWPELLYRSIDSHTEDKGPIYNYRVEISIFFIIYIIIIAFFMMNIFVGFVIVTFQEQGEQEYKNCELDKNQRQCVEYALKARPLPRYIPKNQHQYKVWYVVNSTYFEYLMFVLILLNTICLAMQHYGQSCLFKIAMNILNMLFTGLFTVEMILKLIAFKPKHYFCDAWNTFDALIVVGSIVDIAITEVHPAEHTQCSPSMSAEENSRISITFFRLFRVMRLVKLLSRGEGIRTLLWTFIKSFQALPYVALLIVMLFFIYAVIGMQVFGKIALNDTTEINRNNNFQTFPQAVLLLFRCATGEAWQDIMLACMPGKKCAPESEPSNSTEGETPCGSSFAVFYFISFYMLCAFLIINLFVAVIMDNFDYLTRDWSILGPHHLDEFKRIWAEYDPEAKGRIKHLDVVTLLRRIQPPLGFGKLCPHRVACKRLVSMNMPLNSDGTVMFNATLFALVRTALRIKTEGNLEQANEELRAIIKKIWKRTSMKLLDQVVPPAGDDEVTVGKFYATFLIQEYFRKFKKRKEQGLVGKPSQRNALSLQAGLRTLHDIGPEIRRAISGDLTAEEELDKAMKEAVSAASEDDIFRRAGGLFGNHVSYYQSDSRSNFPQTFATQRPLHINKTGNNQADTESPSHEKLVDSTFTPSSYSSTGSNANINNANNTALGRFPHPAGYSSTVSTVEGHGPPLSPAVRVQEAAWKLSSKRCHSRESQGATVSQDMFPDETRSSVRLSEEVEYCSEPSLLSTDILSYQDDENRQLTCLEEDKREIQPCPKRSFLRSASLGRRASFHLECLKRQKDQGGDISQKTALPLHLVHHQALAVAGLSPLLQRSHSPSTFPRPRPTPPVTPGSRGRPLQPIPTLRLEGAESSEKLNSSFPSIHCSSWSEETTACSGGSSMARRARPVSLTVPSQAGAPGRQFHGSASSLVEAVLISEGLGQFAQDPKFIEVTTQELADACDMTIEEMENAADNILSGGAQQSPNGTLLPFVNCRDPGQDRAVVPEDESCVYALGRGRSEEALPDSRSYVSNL
Chain of Delta-type opioid receptor (P41143 whole entry): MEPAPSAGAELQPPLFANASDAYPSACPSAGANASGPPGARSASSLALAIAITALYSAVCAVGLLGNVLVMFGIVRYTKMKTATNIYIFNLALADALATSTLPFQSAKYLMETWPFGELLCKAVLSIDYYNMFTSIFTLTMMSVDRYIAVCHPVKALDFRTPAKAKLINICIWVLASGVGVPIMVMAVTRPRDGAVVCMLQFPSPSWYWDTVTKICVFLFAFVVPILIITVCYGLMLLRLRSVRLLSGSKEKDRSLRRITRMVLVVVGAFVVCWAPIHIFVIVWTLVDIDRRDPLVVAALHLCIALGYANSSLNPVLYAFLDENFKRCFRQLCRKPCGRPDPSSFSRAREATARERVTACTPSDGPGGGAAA

Compound | AC50 (Estrogen receptor) [µM] | AC50 [1] [µM] | AC50 [2] [µM] | AC50 [3] [µM] | AC50 [4] [µM] | AC50 [5] [µM] | AC50 [6] [µM] | AC50 [7] [µM]
CC(C)C(=O)OCC(=O)[C@@]12O[C@H](C3CCCCC3)O[C@@H]1C[C@H]1[C@@H]3CCC4=CC(=O)C=C[C@]4(C)[C@H]3[C@@H](O)C[C@@]12C [CICLESONIDE] | > 30 | > 30 | > 30 | > 30 | > 10 | > 10 | > 10 | > 10
C1COC(NC(C2CC2)C2CC2)=N1 [RILMENIDINE] | > 30 | > 30 | > 30 | > 30 | > 30 | > 30 | > 10 | 1.31
C#CCN[C@@H]1CCc2ccccc21 [RASAGILINE] | > 30 | > 30 | > 30 | > 30 | > 30 | > 30 | > 30 | > 30
CC(=O)OCC(=O)[C@@]12OC3(CCCC3)O[C@@H]1C[C@H]1[C@@H]3CCC4=CC(=O)C=C[C@]4(C)[C@@]3(F)[C@@H](O)C[C@@]12C [AMCINONIDE] | > 30 | > 30 | > 30 | > 30 | > 10 | > 10 | > 10 | > 10
CN1CC[C@]23CCCC[C@H]2[C@H]1Cc1ccc(O)cc13 [LEVORPHANOL] | > 10 | > 30 | > 30 | > 30 | > 10 | > 10 | > 10 | > 10
Cc1ccc(-c2nc3ccc(C)cn3c2CC(=O)N(C)C)cc1 [ZOLPIDEM] | > 30 | > 30 | > 30 | > 30 | > 10 | > 30 | > 30 | > 30
CCC(C(=O)O)c1ccc(CC(C)C)cc1 (configuration not stated) [BUTIBUFEN] | > 30 | > 30 | > 30 | > 30 | > 30 | > 30 | > 30 | > 30
CC(=O)NS(=O)(=O)c1ccc(N)cc1 [SULFACETAMIDE] | > 10 | > 30 | > 30 | > 30 | > 10 | > 10 | > 10 | > 10
CC1=CC(=O)c2ccccc2C1=O [MENADIONE] | > 30 | > 30 | > 30 | > 30 | > 10 | > 10 | > 10 | > 10
Cc1c(O)c(=O)ccn1C [DEFERIPRONE] | > 30 | > 30 | > 30 | > 30 | > 30 | > 30 | > 30 | > 30
TOCOFERSOLAN | > 30 | > 30 | > 30 | > 30 | > 30 | > 30 | > 30 | > 30
COc1ccccc1OCC(O)COC(N)=O (configuration not stated) [METHOCARBAMOL] | > 30 | > 30 | > 30 | > 30 | > 10 | > 30 | > 10 | > 10
C1=Cc2cccc(OCC3CNCCO3)c2C1 (configuration not stated) [INDELOXAZINE] | > 30 | > 10 | 25 | 22 | > 30 | > 30 | > 30 | > 30
O=C(C[S+]([O-])C(c1ccccc1)c1ccccc1)NO (configuration not stated) | > 30 | > 30 | > 30 | > 30 | > 30 | > 30 | > 30 | > 30
CN1CC(=O)N2[C@H](c3ccc4c(c3)OCO4)c3[nH]c4ccccc4c3C[C@@H]2C1=O | > 30 | > 30 | > 30 | > 30 | > 10 | > 30 | > 10 | > 10
C#C[C@]1(O)CC[C@H]2[C@@H]3CCC4=CCCC[C@@H]4[C@H]3CC[C@@]21C [LYNESTRENOL] | > 30 | > 30 | > 30 | > 30 | > 30 | > 30 | > 30 | > 30
CN1CCCN=C1COC(=O)C(O)(c1ccccc1)C1CCCCC1 (configuration not stated) [OXYPHENCYCLIMINE] | > 10 | > 30 | > 30 | > 30 | > 10 | > 10 | > 10 | > 10
CCCCCN(C)CCC(O)(P(=O)(O)O)P(=O)(O)O [IBANDRONIC ACID] | > 30 | > 30 | > 30 | > 30 | > 10 | 6.2 | > 30 | > 30
CC(C)[N+](C)(CCC(C(N)=O)(c1ccccc1)c1ccccc1)C(C)C [ISOPROPAMIDE] | > 10 | > 30 | > 30 | > 30 | > 10 | > 10 | > 10 | > 10
